From patent US5204355A, “15-nitro-2β, 3β-dihydro- and 15-nitro-2β,3β,6,7-tetrahydrotabersonine derivatives, pharmaceutical compositions containing them and process for preparing same” (Richter Gedeon Vegyeszeti Gyar RT., priority 1990, dated 1993)

What was measured:
Asphyxial anoxia = test: Antihypoxic effect on mice (asphyxial anoxia); type: in vivo, male mice (CFLP LATI); conditions: for ED50: Mus musculus, po, 1 hour before, protected = survival 30 % longer than control
Experimental: The antianoxic action of the target compounds was studied by using the following test method.
ANTIHYPOXIC EFFECT ON MICE
Male mice (CFLP LATI) weighing 24 to 26 g were used in these experiments. The test compounds were orally administered in a volume of 10 ml/kg one hour before starting the experiment.
The animals were orally treated with various doses of the test compounds after starving for 16 hours. One hour following the treatment the animals were placed in air-tight glass cylinders of 100 ml volume and the survival time of the animals was measured. Each group consisted of 10 animals. Animals, surviving longer by 30 % than the average survival time of the control group treated with placebo, were considered to be protected. The ED50 value (the dose effective in 50 % of the animals) was calculated from the percentage of surviving animals by using probit analysis.

[1] = tested on: TET-induced increase in the brain water content; test: TET-induced cerebral edema in rats (brain water content, protective effect); type: in vivo, inbred male Hannover Wistar rats; conditions: for Brain water content % ± S.E.M. / Protective effect %: 5 days TET 2.5 mg/kg; for protective action against TET-induced edema (in words): result in words
Description: The inhibitory effect on the cerebral edema of the compounds of formula (I) was studied by using the method of P. Linnee et al. "L'oedeme cerebral induit chez 1e rat par le triethyletain. Interet et limites comme methode d'etude de antioedemateux cerebraux", Ann. Pharmaceutiques francaises, 42, 431 (1984)) as described hereinafter in detail.
Inbred male Hannover Wistar rats weighing 180 to 200 g were used in these examinations. Before starting and during the treatment the animals were kept on normal laboratory diet and received tap water ad libitum.
The cerebral edema was induced by the daily administration of 2.5 mg/kg of triethyl-tin chloride (abbreviated hereinafter as TET) for 5 days. TET (Merck-Schuchardt, Darmstadt, Germany) was dissolved in distilled water under stirring and the stirring was continued during the treatment, too. TET was orally administered to the animals every day at 7 o'clock a.m.
Both the reference drugs and test compounds were homogenized in a 0.5 % carboxymethylcellulose solution by using an Ultra Turrax mixer and stirring was continued also during the administration. The first dose of the reference and test compounds, respectively, was orally 5 given following the TET treatment by 1 or 6 hours, respectively. The administration was always carried out in a volume of 0.5 ml/100 g of body-weight. Each group consisted of 7 animals; the control group received only the solvent of TET (distilled water) and the vehicle used for the compounds (0.5% carboxymethylcellulose solution) in an identical volume and at the same time as described above.
The animals were decapitated on the 5th day of the treatment at 2 hours after the last treatment (with the test compound). The whole brain was rapidly removed, washed with cold 0.9 % saline, the moisture was removed by a filter paper, the brains were placed on aluminum foils previously weighed and the wet weights of the brains (together with the aluminum foil of known weight) were determined with an accuracy of one tenth mg on an electric balance (Precisa 80/A, PAG Oerlikon AG, Zurich, Switzerland).
Subsequently the brains were dried at 90° C. for 92 hours, then the gross dry weight (dry weight of the brain together with the weight of the aluminum foil) was again measured. With the knowledge of the dry and wet weights, the brain water content, i.e. the effect of treatment by the compound was calculated and expressed in the percentage of the protective effect by using the following formula: [formula] wherein (TET-Ko) means the percentage of average brain water content of the animals treated with TET and vehicle;
(TET-V) means the percentage of average brain water content of the animals treated with TET and the compound; and
(Veh-Ko) means the percentage of average brain water content of the animals treated with distilled water and vehicle.
The deviations of changes in the brain water content (and dry weight) were analyzed by the means of Student's "t" trial.

In the case of `CC[C@]12CCCN3CC[C@]4(C(=C(C(=O)OC)C1)Nc1ccc([N+](=O)[O-])cc14)[C@@H]32` [compound 1700374, 15-nitro-6,7-dihydrotabersonine], the ED50 (Asphyxial anoxia) is reported as over 100 mg/kg and the “protection against cerebral hypoxia (in words)” value (Asphyxial anoxia; result in words, up to 100 mg/kg p.o.) is reported as “did not provide any protection”.

`CC[C@]12C=CCN3CC[C@@]4(c5cc([N+](=O)[O-])ccc5N[C@H]4[C@@H](C(=O)OC)C1)[C@@H]32` [compound 1703594, methyl-15-nitro-6,7-didehydro-(2β, 5α, 12β, 19α)-aspidospermidine-(15-nitro-2β, 3β-dihydrotabersonine)] was tested, and the ED50 (Asphyxial anoxia) was 56.3 mg/kg, the “Brain water content % ± S.E.M.” value ([1]; Experiment 4, 50 μmol/kg oral) was 78.61% and the Protective effect % ([1]; Experiment 4, 50 μmol/kg oral) was 82.9%.

`CC[C@]12CCCN3CC[C@@]4(c5cc([N+](=O)[O-])ccc5N[C@H]4[C@@H](C(=O)OC)C1)[C@@H]32` [compound 1704369, methyl 15-nitro-(2β, 5α, 12β, 19α)-aspidospermidine-3α-carboxylate] was tested, and the “protection against the edema-inducing effect of TET” value ([1]; 100 μmol/kg oral, summary of experiments in text) was 100%, the “Brain water content % ± S.E.M.” value ([1]; Experiment 1, 100 μmol/kg oral) was 78.09 ± 0.09% and the Protective effect % ([1]; Experiment 1, 100 μmol/kg oral) was 103.6%. For the same compound, the “Brain water content % ± S.E.M.” value ([1]; Experiment 2, 100 μmol/kg oral) was 78.15 ± 0.05%, the Protective effect % ([1]; Experiment 2, 100 μmol/kg oral) was 99.3% and the “Brain water content % ± S.E.M.” value ([1]; Experiment 4, 50 μmol/kg oral) was 78.30%. For the same compound, the Protective effect % ([1]; Experiment 4, 50 μmol/kg oral) was 105.9% and the “protective action against TET-induced edema (in words)” value (“protective action” for short) [1] was “even more effective than the structurally similar vincamine”.

For `CCOC(=O)[C@H]1C[C@]2(CC)CCCN3CC[C@@]4(c5cc([N+](=O)[O-])ccc5N[C@@H]14)[C@@H]32` [compound 1708009, ethyl 15-nitro-(2β, 5α, 12β, 19α)-aspidospermidine-3α-carboxylate], the ED50 (Asphyxial anoxia) was 62 mg/kg, the “Brain water content % ± S.E.M.” value ([1]; Experiment 3, 50 μmol/kg oral) was 79.44 ± 0.11% and the Protective effect % ([1]; Experiment 3, 50 μmol/kg oral) was 32.5%. The “protective action” value [1] was “similarly effective”.

For `COC1=C(OC)C(=O)C(CCCCCCCCCCO)=C(C)C1=O` [idebenone, 5,6-dimethoxy-2-(10-hydroxydecyl)-3-methyl-p-benzoquinone], the “Brain water content % ± S.E.M.” value ([1]; Experiment 3, 100 μmol/kg oral) was 79.75 ± 0.14%, the Protective effect % ([1]; Experiment 3, 100 μmol/kg oral) was 14.0% and the “Brain water content % ± S.E.M.” value ([1]; Experiment 6, 100 μmol/kg oral) was 80.22 ± 0.16%. The Protective effect % ([1]; Experiment 6, 100 μmol/kg oral) was 16.9% and the “protective action” value [1] was “did not produce any practically useful protective action”.

With `NC(=O)CN1CCCC1=O` [piracetam, 2-oxo-1-pyrrolidineacetic acid amide] the “Brain water content % ± S.E.M.” value ([1]; Experiment 5, 100 μmol/kg oral) was 80.04 ± 0.28%.

With `CC[C@]12CCCN3CCc4c(n(c5ccccc45)[C@@](O)(C(=O)OC)C1)[C@@H]32` [vincamine, (+) -14β-hydroxy-14α-methoxycarbonyl-14, 15- -dihydroeburnamenine] the “Brain water content % ± S.E.M.” value ([1]; Experiment 1, 100 μmol/kg oral) was 78.83 ± 0.15%, the Protective effect % ([1]; Experiment 1, 100 μmol/kg oral) was 64.9% and the “Brain water content % ± S.E.M.” value ([1]; Experiment 2, 100 μmol/kg oral) was 78.70 ± 0.13%. For the same compound, the Protective effect % ([1]; Experiment 2, 100 μmol/kg oral) was 59.6%, the “Brain water content % ± S.E.M.” value ([1]; Experiment 4, 50 μmol/kg oral) was 79.31% and the Protective effect % ([1]; Experiment 4, 50 μmol/kg oral) was 31.6%.

In the case of “(5'α, 10α)-9, 10-dihydro-12'-hydroxy- 2'-methylethyl)-5'-benzylergotamine-3+, 6', 18-trione monomethanesulfonate [hydergine]”, the “Brain water content % ± S.E.M.” value ([1]; Experiment 6, 30 mg/kg oral) is reported as 79.97 ± 0.38%, the Protective effect % ([1]; Experiment 6, 30 mg/kg oral) is reported as 25.6% and the “protective action” value [1] is reported as “did not produce any practically useful protective action”.
